Results reported in PubChem BioAssay (NCI).
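How tested: cells in 96-well plates exposed to compound for 48 hours at five concentrations. Here, GI50 denotes the concentration required for 50% inhibition of growth. TGI: total growth inhibition.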

Legend:
Experiment in all cases: inhibition of tumour cell growth, NCI panel, 48 h
LOX IMVI melanoma = tested on: LOX IMVI melanoma
OVCAR-8 ovarian = tested on: OVCAR-8 ovarian
SR leukemia = tested on: SR leukemia
SK-MEL-28 melanoma = tested on: SK-MEL-28 melanoma
SW-620 colon = tested on: SW-620 colon
EKVX NSCLC = tested on: EKVX NSCLC
UACC-257 melanoma = tested on: UACC-257 melanoma
SK-OV-3 ovarian = tested on: SK-OV-3 ovarian
COLO 205 colon = tested on: COLO 205 colon
SNB-75 CNS = tested on: SNB-75 CNS
NCI-H226 lung = tested on: NCI-H226 lung
DMS 114 small cell lung = tested on: DMS 114 small cell lung
SF-539 CNS = tested on: SF-539 CNS
U251 CNS = tested on: U251 CNS
NCI-H522 lung = tested on: NCI-H522 lung
MOLT-4 leukemia = tested on: MOLT-4 leukemia
NCI-H23 lung = tested on: NCI-H23 lung
HT29 colon = tested on: HT29 colon
CAKI-1 renal = tested on: CAKI-1 renal
MALME-3M melanoma = tested on: MALME-3M melanoma
SNB-78 CNS = tested on: SNB-78 CNS
DLD-1 colon = tested on: DLD-1 colon
KM20L2 colon = tested on: KM20L2 colon
IGROV1 ovarian = tested on: IGROV1 ovarian
ACHN renal = tested on: ACHN renal
A498 renal = tested on: A498 renal
SNB-19 CNS = tested on: SNB-19 CNS
HOP-92 NSCLC = tested on: HOP-92 NSCLC
K-562 leukemia = tested on: K-562 leukemia
RXF 393 renal = tested on: RXF 393 renal
SK-MEL-2 melanoma = tested on: SK-MEL-2 melanoma
HCT-116 colon = tested on: HCT-116 colon
HCC-2998 colon = tested on: HCC-2998 colon
OVCAR-3 ovarian = tested on: OVCAR-3 ovarian
TK-10 renal = tested on: TK-10 renal
786-0 renal = tested on: 786-0 renal
NCI-H460 lung = tested on: NCI-H460 lung
M14 melanoma = tested on: M14 melanoma
OVCAR-4 ovarian = tested on: OVCAR-4 ovarian
DMS 273 small cell lung = tested on: DMS 273 small cell lung
XF 498 CNS = tested on: XF 498 CNS
OVCAR-5 ovarian = tested on: OVCAR-5 ovarian
RPMI-8226 leukemia = tested on: RPMI-8226 leukemia
M19-MEL melanoma = tested on: M19-MEL melanoma
SK-MEL-5 melanoma = tested on: SK-MEL-5 melanoma
SF-295 CNS = tested on: SF-295 CNS
LXFL 529 NSCLC = tested on: LXFL 529 NSCLC
HL-60(TB) leukemia = tested on: HL-60(TB) leukemia
UACC-62 melanoma = tested on: UACC-62 melanoma
A549 NSCLC = tested on: A549 NSCLC
UO-31 renal = tested on: UO-31 renal
RXF-631 renal = tested on: RXF-631 renal
KM12 colon = tested on: KM12 colon
HOP-62 NSCLC = tested on: HOP-62 NSCLC
SN12C renal = tested on: SN12C renal
HCT-15 colon = tested on: HCT-15 colon

## CCC[CH2][Sn]([CH2]CCC)([O]C(=O)C1CCC(=O)N1)[O]C(=O)C1CCC(=O)N1 (configuration not stated)
LOX IMVI melanoma
  GI50: 152 nM
  TGI: 328 nM
OVCAR-8 ovarian
  GI50: 319 nM
  TGI: 1010 nM
SR leukemia
  GI50: 180 nM
  TGI: 526 nM
SK-MEL-28 melanoma
  GI50: 258 nM
  TGI: 654 nM
SW-620 colon
  GI50: 134 nM
  TGI: 307 nM
EKVX NSCLC
  GI50: 264 nM
  TGI: 918 nM
UACC-257 melanoma
  GI50: 159 nM
  TGI: 338 nM
SK-OV-3 ovarian
  GI50: 801 nM
  TGI: 2020 nM
COLO 205 colon
  GI50: 363 nM
  TGI: 1160 nM
SNB-75 CNS
  GI50: 221 nM
  TGI: 752 nM
NCI-H226 lung
  GI50: 1430 nM
  TGI: 2810 nM
DMS 114 small cell lung
  GI50: 168 nM
  TGI: 367 nM
SF-539 CNS
  GI50: 185 nM
  TGI: 414 nM
U251 CNS
  GI50: 164 nM
  TGI: 330 nM
NCI-H522 lung
  GI50: 26.3 nM
  TGI: 110 nM
MOLT-4 leukemia
  GI50: 245 nM
  TGI: 755 nM
NCI-H23 lung
  GI50: 147 nM
  TGI: 384 nM
HT29 colon
  GI50: 588 nM
  TGI: 2060 nM
CAKI-1 renal
  GI50: 75.7 nM
  TGI: 356 nM
MALME-3M melanoma
  GI50: 78.3 nM
  TGI: 243 nM
SNB-78 CNS
  GI50: 260 nM
  TGI: 759 nM
DLD-1 colon
  GI50: 353 nM
  TGI: 1520 nM
KM20L2 colon
  GI50: 446 nM
  TGI: 1690 nM
IGROV1 ovarian
  GI50: 1100 nM
  TGI: 2480 nM
ACHN renal
  GI50: 220 nM
  TGI: 512 nM
A498 renal
  GI50: 210 nM
  TGI: 517 nM
SNB-19 CNS
  GI50: 303 nM
  TGI: 909 nM
HOP-92 NSCLC
  GI50: 141 nM
  TGI: 575 nM
K-562 leukemia
  GI50: 138 nM
  TGI: 565 nM
RXF 393 renal
  GI50: 300 nM
  TGI: 473 nM
SK-MEL-2 melanoma
  GI50: 181 nM
  TGI: 367 nM
HCT-116 colon
  GI50: 786 nM
  TGI: 2040 nM
HCC-2998 colon
  GI50: 400 nM
  TGI: 1590 nM
OVCAR-3 ovarian
  GI50: 218 nM
  TGI: 663 nM
TK-10 renal
  GI50: 240 nM
  TGI: 682 nM
786-0 renal
  GI50: 196 nM
  TGI: 409 nM
NCI-H460 lung
  GI50: 1270 nM
  TGI: 2530 nM
M14 melanoma
  GI50: 200 nM
  TGI: 456 nM
OVCAR-4 ovarian
  GI50: 376 nM
  TGI: 1710 nM
DMS 273 small cell lung
  GI50: 336 nM
  TGI: 1160 nM
XF 498 CNS
  GI50: 217 nM
  TGI: 376 nM
OVCAR-5 ovarian
  GI50: 2050 nM
  TGI: 3.48 µM
RPMI-8226 leukemia
  GI50: 124 nM
  TGI: 669 nM
M19-MEL melanoma
  GI50: 244 nM
  TGI: 824 nM
SK-MEL-5 melanoma
  GI50: 461 nM
  TGI: 1650 nM
SF-295 CNS
  GI50: 274 nM
  TGI: 1050 nM
LXFL 529 NSCLC
  GI50: 49.8 nM
  TGI: 188 nM
HL-60(TB) leukemia
  GI50: 157 nM
  TGI: 445 nM
UACC-62 melanoma
  GI50: 154 nM
  TGI: 331 nM
A549 NSCLC
  GI50: 2010 nM
  TGI: 3.64 µM
UO-31 renal
  GI50: 711 nM
  TGI: 1980 nM
RXF-631 renal
  GI50: 159 nM
  TGI: 297 nM
KM12 colon
  GI50: 496 nM
  TGI: 1730 nM
HOP-62 NSCLC
  GI50: 619 nM
  TGI: 2040 nM
SN12C renal
  GI50: 341 nM
  TGI: 1200 nM
HCT-15 colon
  GI50: 182 nM
  TGI: 353 nM
